# Measured values from US4702863A, “Indoaniline and indophenol compounds, a process for their preparation, dyeing compositions containing them and a hair-dyeing process” (L'Oreal, priority 1983, dated 1987).
# Assays:
# [1] = tested on: Salmonella Typhimurium; assay: Ames test on Salmonella Typhimurium, with or without an S9 mix activated with Arochlor; assay type: cell-based; conditions: strains TA 100, TA 98 and TA 1538; with or without an S9 mix (Arochlor activation)
# Source text: Compounds of formula (I), in hair-dyeing, are substantially innocuous.
# [2] = tested on: Salmonella Typhimurium; conditions: Selects-Proton Magnetic Resonance, page 1, volume 18, 1981, number 95: 75096 f; cited from earlier work
SMILES,mutagenicity in the Ames test [1],mutagenic action disclosed in Chemical Abstracts [2]
"COC1=CC(=Nc2ccc(N)c(C)c2)C(N)=CC1=O [[(4'-amino-3'-methyl)phenyl]-2-amino-5-methoxy-1,4-benzoquinoneimine]",highly mutagenic,highly mutagenic
"COC1=CC(=Nc2ccc(N)cc2)C(N)=CC1=O [[(4'-amino)phenyl]-2-amino-5-methoxy-1,4-benzoquinoneimine]",highly mutagenic,
